The values below come from PubChem BioAssay (NCI).

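In this assay, cells in 96-well plates receive the compound at five concentrations for 48 hours. Endpoints are linearly interpolated between the surrounding concentrations. At the GI50, growth is halved. TGI marks complete inhibition of growth.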

The subject of the test is MDA-MB-468 breast. Nature of the test: DTP human tumour cell line panel, 48 h.
Take `Cc1cc(/C=C/c2ccc3cc(N(C)C)ccc3[n+]2C)c(C)n1-c1ccccc1`: the GI50 (in general, the concentration that inhibits growth by half) was 0.0486 µM and the total growth inhibition concentration (TGI) (as a rule, the concentration giving total growth inhibition) was found to be 0.23 µM. For `CN1CCN(CCCn2c(=O)c3sc4ncccc4c3n3nnc(-c4ccccc4)c23)CC1` the same measures were 6.84 µM and 13.9 µM. For `COc1cccc(-c2nc(-c3ccc(NC(=O)C(C)C)cc3)[nH]c2-c2ccnc(Br)c2)c1` the same measures were 1.89 µM and 5.4 µM.

For the molecule `CC(C)[C@H]1COC(=O)N1[C@@H]1C(=O)N([C@@H](CCC(=O)N2CCN(C3CCCC3)CC2)C(=O)N[C@@H]2CCCc3ccccc32)[C@@H]1/C=C/c1cccc(Br)c1`, the GI50 was 0.688 µM and the TGI amounted to 2.12 µM.

For `O=C(/C=C/c1ccc(Cl)cc1)c1ccc(Nc2ccnc3cc(Cl)ccc23)cc1`, the GI50 is 43.1 µM and the concentration for total growth inhibition (TGI) is over 100 µM. Take `O=C1OC(O)[C@@H]2[C@H]1[C@H]1CC[C@@H]2O1` (some centres not stated): the GI50 is 85.9 µM and the concentration for total growth inhibition (TGI) is over 100 µM.

As to `Cn1cnc([N+](=O)[O-])c1S(=O)(=O)Oc1cccc2ccccc12`, the GI50 was 1.85 µM and the TGI is 3.84 µM. Take `COc1ccc(/C=C(/C#N)n2nnc3cccc(F)c32)cc1`: the 50% growth inhibitory concentration (GI50) was 0.414 µM and the concentration for total growth inhibition (TGI) was determined as 5.12 µM. `N#C/C(=N\Nc1ccc(F)cc1)C(=O)Nc1cc(-c2ccccc2)nn1-c1ccccc1`: the GI50 was 1.46 µM and the concentration for total growth inhibition (TGI) is 6.01 µM. In the same order, the values of `CC[C@H](Nc1ncnc2nc[nH]c12)c1oc2ccccc2c(=O)c1-c1cccc(F)c1` are 9.08 µM and 34.4 µM.

For the molecule `CO[C@H]1/C=C(/C)CCC[C@H](C)[C@H](O)[C@@H](C)C(=O)C(C)(C)[C@@H](O)CC(=O)O[C@@H]1/C(C)=C/c1csc(C)n1`, the concentration for 50% growth inhibition (GI50) is under 0.01 µM and the TGI amounted to 0.0463 µM.

Take `C/C(=C(/c1ccc(O)cc1)c1ccc(OCCN2CCCC2)cc1)c1ccc(Cl)cc1`: the GI50 was 1.88 µM and the TGI is 4.11 µM. In the same order, the values of `O=C(CCc1nnc2sc(-c3ccc(Cl)cc3Cl)nn12)c1nc2ncccc2[nH]1` are 2.09 µM and 4.41 µM.

For `CCN(CC)c1ccc(-c2cc(-c3cc(OC)c(OC)c(OC)c3)nc(N3CCOCC3)c2C#N)cc1`, the GI50 is 2.58 µM and the TGI is over 100 µM. For `O=C1c2cc3c(cc2-c2c1c1ccc(F)cc1c(=O)n2CCCNCCO)OCO3` the same measures were 0.0228 µM and 0.0705 µM. In the same order, the values of `Fc1cc2[nH]ncc2c2c3c(c(-c4cn[nH]c4)nc12)CCCC3` are 0.857 µM and 2.58 µM. For `CCN1CCN(c2nc(C)cc(N(CCNc3ccnc4cc(Cl)ccc34)Cc3ccc4c(c3)OCO4)n2)CC1`, the GI50 was 1.55 µM and the concentration for total growth inhibition (TGI) worked out at 3.34 µM. Take `OC(c1cc(-c2ccc(C(F)(F)F)cc2)nc(-c2ccc(C(F)(F)F)cc2)c1)C1CCCCN1` (configuration not stated): the GI50 is 1.47 µM and the TGI amounted to 2.82 µM. For the molecule `O=c1c2sccc2n(CC2COc3ccccc3O2)c(=O)n1O` (configuration not stated), the GI50 is 4.61 µM and the TGI is 57.4 µM. For the molecule `COc1ccc(-c2nnc(COc3ccc(NC(=O)Nc4cc(C(F)(F)F)cc(C(F)(F)F)c4)cc3F)o2)cc1`, the GI50 was 1.55 µM and the TGI came out at 5.04 µM.

With `CN(C(=O)c1ccc(C(F)(F)F)cc1)c1ccc(Oc2ccc3c(c2)cc(C(=O)N2CCN(Cc4ccc(OC(F)F)cc4)CC2)n3C)nc1`, the concentration for 50% growth inhibition (GI50) was under 0.01 µM and the TGI was determined as 28.6 µM. For `COc1ccc(-c2nnc(COc3ccc(C(=O)/C=C/c4ccco4)cc3)o2)cc1` the same measures were 1.89 µM and 4.12 µM. For `C=C1C(=O)O[C@H]2[C@H]1CC/C(COC(=O)c1c[nH]c3ccccc13)=C\CC[C@@]1(C)O[C@@H]21` the same measures were 0.19 µM and 0.448 µM. In the same order, the values of `O=C(CSc1ccc(Cl)cc1)Nc1ccc(-c2nc3ccccc3s2)c(Cl)c1` are 4.52 µM and 48.5 µM. As to `O=C(/C=C/c1ccncc1)c1cc(Cl)ccc1O`, the GI50 is 18.1 µM and the total growth inhibition concentration (TGI) amounted to 33 µM. In the same order, the values of `Cc1cc(-c2ccc3nc(C4CCOCC4)n(CCOC(F)(F)F)c3c2)cn(C)c1=O` are 0.188 µM and 2.25 µM. In the same order, the values of `COc1cc(/C=C/C(=O)c2cc(OC)c(OC)c(OC)c2)ccc1OCc1ccccc1` are 2.15 µM and 7.98 µM.

For `C=C1NC(=O)C(C(C)CC)NC(=O)C2CSCC(NC(=O)CCC(=O)O)C(=O)NC(Cc3ccccc3)C(=O)NC(C)C(=O)NC(CC(C)CC)C(=O)NC(C(=O)NC(Cc3ccccc3)C(=O)N3CCCC3C(=O)N2)C(C)OC(=O)C(CO)NC(=O)C(C(O)COC)N(C)C(=O)C(C(C)C)NC(=O)C(CC(C)CC)NC1=O` (configuration not stated), the GI50 is under 0.014 µM. Turning to `COc1cc(/C=C/c2cc(O)c(C(C)=O)c(O)c2)cc2c1O[C@]1(C)CC[C@@H](O)C(C)(C)[C@H]1C2`, the GI50 was 4.75 µM and the TGI is 31.2 µM. In the case of `Nc1ncnc2c1nnn2C1OC(CO)C(O)C1O` (configuration not stated), the concentration for 50% growth inhibition (GI50) is 0.234 µM and the concentration for total growth inhibition (TGI) came to 1.26 µM. The molecule `OCc1ccc(-c2ccc(-c3ccc(CO)s3)o2)s1` had a TGI of 0.023 µM. This counts as double-digit nanomolar.

As for `CCCCCCCC(=O)SCC/C=C/[C@@H]1CC(=O)NCc2cc(ccn2)C2=N[C@@](C)(CS2)C(=O)N[C@@H](C(C)C)C(=O)O1`, the concentration for 50% growth inhibition (GI50) was 0.055 µM and the TGI is over 33.3 µM.
